Experimental data reported in patent US5635379A, “D-2-alkyl-tryptophan and peptides containing same” (Deghenghi; Romano, priority 1990, dated 1997).
Square brackets hold non-standard residues; d marks the D form. Peptide text beside a SMILES is read from it. dTrp(2-Me) = Cc1[nH]c2ccccc2c1C[C@@H](N)C(=O)O

Test system: GH release
Assay: GH release in pentobarbital-anesthetized rats, s.c.
Type: in vivo, Sprague Dawley rats
Description: Male Sprague Dawley rats weighing 225-250 g were divided in groups of five animals each. Rats were anesthetized with Nembutal injected intraperiteonally at 50 mg/kg, fifteen minutes prior to the first blood withdrawal taken over heparin by cardiac puncture (for determination of basal GH).
Subcutaneous injections of either HEXARELIN or GHRP-6 were given immediately after the first blood collection, and additional blood samples were collected 15 and 40 minutes later.
Measurement of rat GH was performed by a standard double antibody radioimmunoassay with reagents supplied by the National Pituitary Agency and the National Institute of Arthritis, Diabetes, and Digestive and Kidney Diseases. The standards used were NIADDK-NIH-rGH-RP-2. Statistical data were obtained with the Student's t Test at a significance level of 5%.

Cc1[nH]c2ccccc2c1C[C@@H](NC(=O)[C@@H](N)Cc1cnc[nH]1)C(=O)N[C@@H](C)C(=O)N[C@@H](Cc1c[nH]c2ccccc12)C(=O)N[C@H](Cc1ccccc1)C(=O)N[C@@H](CCCCN)C(N)=O [Example 4, His-D-2-methyl-Trp-Ala-Trp-D-Phe-Lys-NH2] (H-H[dTrp(2-Me)]AW[dF]K-NH2)
POST-DRUG PLASMA GH (s.c. 10 μg/kg, 0 min (basal)): 63 ± 58 ng/mL | POST-DRUG PLASMA GH (s.c. 10 μg/kg, 15 min): 95 ± 44 ng/mL | POST-DRUG PLASMA GH (s.c. 10 μg/kg, 40 min): 88 ± 29 ng/mL | POST-DRUG PLASMA GH (s.c. 25 μg/kg, 0 min (basal)): 56 ± 21 ng/mL | POST-DRUG PLASMA GH (s.c. 25 μg/kg, 15 min): 388 ± 99 ng/mL | POST-DRUG PLASMA GH (s.c. 25 μg/kg, 40 min): 100 ± 51 ng/mL | POST-DRUG PLASMA GH (s.c. 50 μg/kg, 0 min (basal)): 32 ± 16 ng/mL | POST-DRUG PLASMA GH (s.c. 50 μg/kg, 15 min): 439 ± 69 ng/mL | POST-DRUG PLASMA GH (s.c. 50 μg/kg, 40 min): 81 ± 13 ng/mL
